Reference: ChEMBL document CHEMBL1131890, “Syntheses and evaluation of amidinobenzofuran derivatives as tryptase inhibitors” (Bioorg Med Chem Lett, 1999)

Columns and labels:
[1] = Compound was tested for inhibitory activity against tryptase; set-up: species or system Homo sapiens
[2] = target: Prothrombin (Homo sapiens, UniProt P00734); assay: Inhibition of thrombin
[3] = target: T1, Tryptase (Homo sapiens, UniProt Q9BZJ3+Q15661+Q9NRR2); assay: Inhibition of tryptase activity; assay type: protein assay
[4] = target: T1, Tryptase; assay: Compound was tested for inhibitory activity against tryptase; Not determined (value more than […]); assay type: protein assay
[5] = system: Rattus norvegicus; assay: Effect of compound on PCA reaction in rats at a i.v. dose of 1 mg/kg 1 hr prior to antigen challenge; assay type: functional; conditions: route intravenous

Row | Ki [2] [µM] | Ki [3] [nM] | Compound | also measured
1 | 85 | – | N=C(N)c1ccc2oc(C(=O)N3CCN(C(=O)CCCCCC(=O)N4CCN(C(=O)c5cc6cc(C(=N)N)ccc6o5)CC4)CC3)cc2c1 | Ki [1]: 0.0012 µM
2 | – | 23000 | N=C(N)NCCCCCC(=O)N1CCN(C(=O)COc2ccc(OCC(=O)N3CCN(C(=O)CCCCCNC(=N)N)CC3)cc2)CC1 | –
3 | – | 3000 | N=C(N)c1ccc2oc(C(=O)N3CCN(C(=O)COc4ccccc4)CC3)cc2c1 | –
4 | 23 | – | N=C(N)c1ccc2oc(C(=O)N3CCN(C(=O)CCCCC(=O)N4CCN(C(=O)c5cc6cc(C(=N)N)ccc6o5)CC4)CC3)cc2c1 | Ki [1]: 0.00086 µM
5 | 28 | – | N=C(N)c1ccc2oc(C(=O)N3CCN(C(=O)COc4ccc(OCC(=O)NCc5ccccc5)cc4)CC3)cc2c1 | Ki [1]: 0.037 µM
6 | – | 13000 | N=C(N)NCCCCCCC(=O)N1CCN(C(=O)COc2ccc(OCC(=O)N3CCN(C(=O)CCCCCCNC(=N)N)CC3)cc2)CC1 | –
7 | – | 970 | O=C(COc1ccc(OCC(=O)N2CCN(C(=O)c3cc4c(s3)CCNC4)CC2)cc1)N1CCN(C(=O)c2cc3c(s2)CCNC3)CC1 | –
8 | – | – | O=C(CCC(=O)N1CCNCC1)CC(=O)N1CCN(C(=O)COc2ccc(OCC(=O)N3CCN(C(=O)CC(=O)CCC(=O)N4CCNCC4)CC3)cc2)CC1 | Ki [4]: Value more than 1x10^4
9 | – | – | O=C(CCCC(=O)N1CCNCC1)C(=O)N1CCN(C(=O)COc2ccc(OCC(=O)N3CCN(C(=O)C(=O)CCCC(=O)N4CCNCC4)CC3)cc2)CC1 | Ki [4]: Value more than 1x10^4
10 | 82 | – | N=C(N)c1ccc2oc(C(=O)N3CCN(C(=O)CC(=O)N4CCN(C(=O)c5cc6cc(C(=N)N)ccc6o5)CC4)CC3)cc2c1 | Ki [1]: 0.65 µM
11 | 5.3 | – | N=C(N)c1ccc2oc(C(=O)N3CCN(C(=O)COc4ccc(OCC(=O)Nc5ccc(-c6c[nH]cn6)cc5)cc4)CC3)cc2c1 | Ki [1]: 0.0068 µM
12 | 29 | 0.046 | N=C(N)N1CCc2sc(C(=O)N3CCN(C(=O)COc4ccc(OCC(=O)N5CCN(C(=O)c6cc7c(s6)CCN(C(=N)N)C7)CC5)cc4)CC3)cc2C1 | –
13 | – | 13000 | O=C(COc1ccc(OCC(=O)N2CCN(C(=O)CC(=O)N3CCNCC3)CC2)cc1)N1CCN(C(=O)CC(=O)N2CCNCC2)CC1 | –
14 | 88 | 1.1 | N=C(N)c1ccc2oc(C(=O)N3CCN(C(=O)COc4ccccc4OCC(=O)N4CCN(C(=O)c5cc6cc(C(=N)N)ccc6o5)CC4)CC3)cc2c1 | –
15 | – | 1100 | N=C(NCc1ccccc1)c1ccc2oc(C(=O)N3CCN(C(=O)COc4ccc(OCC(=O)N5CCN(C(=O)c6cc7cc(C(=N)NCc8ccccc8)ccc7o6)CC5)cc4)CC3)cc2c1 | –
16 | – | 6600 | CN(C)C(=N)c1ccc2oc(C(=O)N3CCN(C(=O)COc4ccc(OCC(=O)N5CCN(C(=O)c6cc7cc(C(=N)N(C)C)ccc7o6)CC5)cc4)CC3)cc2c1 | –
17 | 22 | 0.028 | N=C(N)c1ccc2sc(C(=O)N3CCN(C(=O)COc4ccc(OCC(=O)N5CCN(C(=O)c6cc7cc(C(=N)N)ccc7s6)CC5)cc4)CC3)cc2c1 | –
18 | 230 | 0.019 | N=C(N)c1ccc2oc(C(=O)N3CCN(C(=O)CCCCCCCC(=O)N4CCN(C(=O)c5cc6cc(C(=N)N)ccc6o5)CC4)CC3)cc2c1 | –
19 | 32 | – | N=C(N)c1ccc2oc(C(=O)N3CCN(C(=O)CCCC(=O)N4CCN(C(=O)c5cc6cc(C(=N)N)ccc6o5)CC4)CC3)cc2c1 | Ki [1]: 0.0088 µM
20 | 24 | 1100 | N=C(N)Nc1ccc2oc(C(=O)N3CCN(C(=O)COc4ccc(OCC(=O)N5CCN(C(=O)c6cc7cc(NC(=N)N)ccc7o6)CC5)cc4)CC3)cc2c1 | –
21 | 15 | 0.029 | N=C(N)c1ccc2oc(C(=O)N3CCN(C(=O)CO[C@H]4CCC[C@@H](OCC(=O)N5CCN(C(=O)c6cc7cc(C(=N)N)ccc7o6)CC5)CCC4)CC3)cc2c1 | inhibition in vivo at 1 mg/kg [5]: 51%
22 | – | 80000 | N=C(N)NCCCCC(=O)N1CCN(C(=O)COc2ccc(OCC(=O)N3CCN(C(=O)CCCCNC(=N)N)CC3)cc2)CC1 | –
23 | 51 | – | N=C(N)c1ccc2oc(C(=O)N3CCN(C(=O)CCC(=O)N4CCN(C(=O)c5cc6cc(C(=N)N)ccc6o5)CC4)CC3)cc2c1 | Ki [1]: 0.015 µM
24 | – | 0.12 | N=C(N)c1ccc2oc(C(=O)N3CCN(C(=O)CCCCCCC(=O)N4CCN(C(=O)c5cc6cc(C(=N)N)ccc6o5)CC4)CC3)cc2c1 | –
25 | 32 | 0.057 | N=C(N)c1ccc2oc(C(=O)N3CCN(C(=O)COc4ccc(OCC(=O)N5CCN(C(=O)c6cc7cc(C(=N)N)ccc7o6)CC5)cc4)CC3)cc2c1 | –

Row | Compound | Ki [2] [µM] | Ki [3] [nM] | also measured
26 | N=C(N)c1ccc2oc(C(=O)N3CCN(C(=O)COc4ccc(OCC(=O)N5CCCCC5)cc4)CC3)cc2c1 | – | 60 | –
27 | CCOC(=O)COc1ccc(OCC(=O)N2CCN(C(=O)c3cc4cc(C(=N)N)ccc4o3)CC2)cc1 | – | 210 | –
28 | N=C(N)c1ccc2oc(C(=O)N3CCN(C(=O)N4CCN(C(=O)c5cc6cc(C(=N)N)ccc6o5)CC4)CC3)cc2c1 | – | 460 | –
29 | N=C(N)c1ccc2oc(C(=O)N3CCN(C(=O)COc4ccc(OCC(=O)N5CCNCC5)cc4)CC3)cc2c1 | – | 67 | –
